One data set relates to Herpes Simpex Virus 1. The class given is cell-based.
The next data set has as its system Herpes Simpex Virus 2. Type of data set: cell-based.
The test system of another data set is Human cytomegalovirus. Type of data set: cell-based.
The test system of the next data set is Yellow fever virus. Type of data set: cell-based.
The test system of another data set is Rift valley fever virus. Type of data set: cell-based.
The next data set has as its system tacaribe virus. The class given is cell-based.
For a further data set, the system named is polio virus. The class given is cell-based.
The subject of data set [1] is Venezuelan equine encephalalitis virus. Type of data set: cell-based.
Another data set concerns Vaccina virus. Type of data set: cell-based.
For another data set, the system named is Hepatitis B virus. The class given is cell-based.
A further data set deals with Hepatitis C virus. The class given is cell-based.
The next data set has as its system Adenorovirusirus-5. The class given is cell-based.
Data set [2] in a line: Neutral red (toxicity), secondary assay. The note with it: human.
Data set [3] can be described thus: Cytotoxicity by neutral red dye uptake, primary assay. The note with it: human.
Data set [4] has as its system human Norovirus replicon (GT1, HG23 cell line). In words: Primary anti-Norovirus assay, RNA hybridization (replicon). The note with it: for Sl50 - CC50/EC50 / Sl90 - CC50/EC90: RNA hybridization (replicon), HG23 cells. (In general: Replicon systems follow genome replication, usually without infectious particles.)
For data set [5] the test system is unchanged. In words: Secondary anti-Norovirus assay, quantitative polymerase chain reaction (replicon). The note with it: for Sl50 - CC50/EC50 / Sl90 - CC50/EC90: quantitative PCR (replicon), HG23 cells.

Consider `COc1c(C)cnc(Cn2cnc3c(Cl)cc(N)cc32)c1C` [Compound 1, 4-Chloro-1-((4-methoxy-3,5-dimethylpyridin-2-yl)methyl)-1H-benzo[d]imidazo-6-amine], for which the antiviral activity result in the data set with Herpes Simpex Virus 1, in the data set on Herpes Simpex Virus 2, with Human cytomegalovirus, with Yellow fever virus, in the data set with Rift valley fever virus and in the data set on tacaribe virus was “did not have activity” each time. For the same molecule, the antiviral activity entry (in the data set on polio virus; in [1]; in the data set with Vaccina virus; in the data set with Hepatitis B virus; in the data set with Hepatitis C virus; in the data set with Adenorovirusirus-5) was “did not have activity” in each case. The CC50 (commonly the concentration that lowers cell viability or growth by half) at 3 day in data set [2] was more than 50 µM; in data set [3], more than 100 µM. The EC50 in data set [4] (Norovirus, GT1, HG23, in Homo sapiens, 72 h, read-out: EC50 - compound concentration that reduces viral replication by 50%) is 0.617 µM; in [5] (Norovirus, GT1, HG23, in Homo sapiens, read-out: EC50 - compound concentration that reduces viral replication by 50%), 1.4 µM. The EC90 worked out at 7.5 µM in data set [4] (Norovirus, GT1, HG23, in Homo sapiens, 72 h, read-out: EC90 - compound concentration that reduces viral replication by 90%) and 8.5 µM in data set [5] (Norovirus, GT1, HG23, in Homo sapiens, read-out: EC90 - compound concentration that reduces viral replication by 90%). Moreover, the “Sl50 - CC50/EC50” value in [4] is recorded as more than 162; in [5], more than 36. Further, the entries for the “Sl90 - CC50/EC90” value in [4] and in data set [5] were more than 13 and more than 6, respectively. Also, the “activity against Norovirus in the primary screen” value in data set [4] (primary screen) was “active”. The “activity against Norovirus, data confirmed in the secondary assay” value in data set [5] (secondary assay) is on record as “confirmed”.
As for `C[C@@]1(O)[C@H](O)[C@@H](CO)O[C@H]1n1ccc(N)nc1=O` [2′C-methyl cytidine, reference compound], the “Sl50 - CC50/EC50” value in data set [4] was more than 48; in [5], more than 50. For the same molecule, the “Sl90 - CC50/EC90” value in data set [4] is reported as more than 16; in data set [5] it was more than 17.

Source of the values: patent US9375419B1 (priority 2014, dated 2016).
